22 compounds from patent publication US11919901B2 (Syndax Pharmaceuticals, Inc., priority 2021, dated 2024) can be followed below.

pEC50, pKi: −log10 of the molar value.

For this test, the target named is Menin-MLL (Homo sapiens (Human), UniProt O00255). The test can be described thus: Determination of binding constants (Ki) to Menin-MLL (HTRF). The settings on record: HTRF, 0.25 nM H-FL-Menin, 3.2 nM FITC-MLL-4-43, 24 hr incubation; for pKi: read-out: Menin-MLL Ki HTRF Assay: Ki.
Chain of Menin-MLL (O00255 whole entry): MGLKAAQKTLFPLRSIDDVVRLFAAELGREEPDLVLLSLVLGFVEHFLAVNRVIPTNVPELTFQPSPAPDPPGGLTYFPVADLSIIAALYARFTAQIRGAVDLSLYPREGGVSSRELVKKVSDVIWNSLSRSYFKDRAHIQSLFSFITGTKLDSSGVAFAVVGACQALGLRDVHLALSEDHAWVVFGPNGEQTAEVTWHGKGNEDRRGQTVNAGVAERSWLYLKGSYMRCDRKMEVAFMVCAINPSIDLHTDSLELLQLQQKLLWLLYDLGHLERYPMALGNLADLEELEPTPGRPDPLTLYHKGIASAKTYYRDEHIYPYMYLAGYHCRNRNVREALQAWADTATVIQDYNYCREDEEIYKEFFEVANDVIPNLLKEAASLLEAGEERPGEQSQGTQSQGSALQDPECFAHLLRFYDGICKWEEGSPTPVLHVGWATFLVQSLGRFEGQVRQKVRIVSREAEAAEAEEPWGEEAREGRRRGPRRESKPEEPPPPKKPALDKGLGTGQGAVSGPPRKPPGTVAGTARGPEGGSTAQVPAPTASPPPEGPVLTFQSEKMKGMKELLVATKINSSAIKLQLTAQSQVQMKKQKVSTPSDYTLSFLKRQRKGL

On to `C[C@@H]1COC[C@H](C)N1C(=O)c1cc(F)ccc1Oc1cncnc1N1CC2(CCN(C[C@@H]3CC[C@@H](NS(=O)(=O)C4CC4)CO3)CC2)C1` [Compound 26, N-((3R,6S)-6-((2-(5-(2-((3S,5R)-3,5-dimethylmorpholine-4-carbonyl)-4-fluorophenoxy)pyrimidin-4-yl)-2,7-diazaspiro[3.5]nonan-7-yl)methyl)tetrahydro-2H-pyran-3-yl)cyclopropanesulfonamide], for which the pEC50 is over 7.30 and the pKi was over 9.00.
In the case of `C[C@@H]1COC[C@@H](C)N1C(=O)c1cc(F)ccc1Oc1cncnc1N1CC2(CCN(C[C@@H]3CC[C@@H](NS(C)(=O)=O)CO3)CC2)C1` [Compound 28, N-((3R,6S)-6-((2-(5-(2-((3R,5R)-3,5-dimethylmorpholine-4-carbonyl)-4-fluorophenoxy)pyrimidin-4-yl)-2,7-diazaspiro[3.5]nonan-7-yl)methyl)tetrahydro-2H-pyran-3-yl)methanesulfonamide], the pEC50 was over 7.30 and the pKi is over 9.00.
The corresponding values for `CCS(=O)(=O)N[C@@H]1CC[C@@H](CN2CCC3(CC2)CN(c2ncncc2Oc2ccc(F)cc2C(=O)N2[C@H](C)COC[C@H]2C)C3)OC1` [Compound 29] are over 7.30 and over 9.00.
Consider `CC(C)S(=O)(=O)N[C@@H]1CC[C@@H](CN2CCC3(CC2)CN(c2ncncc2Oc2ccc(F)cc2C(=O)N2[C@H](C)COC[C@H]2C)C3)OC1` [Compound 30], for which the pEC50 is over 7.30 and the pKi was over 9.00.
Taken in the same sequence, the figures for `C[C@@H]1COC[C@@H](C)N1C(=O)c1cc(F)ccc1Oc1cncnc1N1CC2(CCN(C[C@@H]3CC[C@@H](NS(=O)(=O)C4CC4)CO3)CC2)C1` [Compound 31, N-((3R,6S)-6-((2-(5-(2-((3R,5R)-3,5-dimethylmorpholine-4-carbonyl)-4-fluorophenoxy)pyrimidin-4-yl)-2,7-diazaspiro[3.5]nonan-7-yl)methyl)tetrahydro-2H-pyran-3-yl)cyclopropanesulfonamide] were over 7.30 and over 9.00.
As for `C[C@@H]1COC[C@@H](C)N1C(=O)c1cc(F)ccc1Oc1cncnc1N1CC2(CCN(C[C@@H]3CC[C@@H](NS(=O)(=O)C4COC4)CO3)CC2)C1` [Compound 32], the pEC50 is over 7.30 and the pKi is over 9.00.
As for `CCS(=O)(=O)N[C@@H]1CC[C@@H](CN2CCC3(CC2)CN(c2ncncc2Oc2ccc(F)cc2C(=O)N(CCOC)C(C)C)C3)OC1` [Compound 35, 2-((4-(7-(((2S,5R)-5-(ethylsulfonamido)tetrahydro-2H-pyran-2-yl)methyl)-2,7-diazaspiro[3.5]nonan-2-yl)pyrimidin-5-yl)oxy)-5-fluoro-N-isopropyl-N-(2-methoxyethyl)benzamide], the pEC50 is over 7.30 and the pKi is over 9.00.
For `CCS(=O)(=O)N[C@@H]1CC[C@@H](CN2CCC3(CC2)CN(c2ncncc2Oc2ccc(F)cc2C(=O)N2[C@H](C)CCC[C@@H]2C)C3)OC1` [Compound 36, N-((3R,6S)-6-((2-(5-(2-((2S,6R)-2,6-dimethylpiperidine-1-carbonyl)-4-fluorophenoxy)pyrimidin-4-yl)-2,7-diazaspiro[3.5]nonan-7-yl)methyl)tetrahydro-2H-pyran-3-yl)ethanesulfonamide], the pEC50 is over 7.30 and the pKi is over 9.00.
Turning to `CCCNC(=O)N[C@@H]1CC[C@@H](CN2CCC3(CC2)CN(c2ncncc2Oc2ccc(F)cc2C(=O)N(CC)C(C)C)C3)OC1` [Compound 38, N-ethyl-5-fluoro-N-isopropyl-2-((4-(7-(((2S,5R)-5-(3-propylureido)tetrahydro-2H-pyran-2-yl)methyl)-2,7-diazaspiro[3.5]nonan-2-yl)pyrimidin-5-yl)oxy)benzamide], the pEC50 is 7.00 to 7.30 and the negative-log Ki (pKi) was 8.82 to 9.00.
For the compound `CCNC(=O)N[C@@H]1CC[C@@H](CN2CCC3(CC2)CN(c2ncncc2Oc2ccc(F)cc2C(=O)N(CC)C(C)C)C3)OC1` [Compound 39, N-ethyl-2-((4-(7-(((2S,5R)-5-(3-ethylureido)tetrahydro-2H-pyran-2-yl)methyl)-2,7-diazaspiro[3.5]nonan-2-yl)pyrimidin-5-yl)oxy)-5-fluoro-N-isopropylbenzamide], the pEC50 is over 7.30 and the pKi is over 9.00.
Take `CCN(C(=O)c1cc(F)ccc1Oc1cncnc1N1CC2(CCN(C[C@@H]3CC[C@@H](NC(=O)NCC(F)F)CO3)CC2)C1)C(C)C` [Compound 41, 2-((4-(7-(((2S,5R)-5-(3-(2,2-difluoroethyl)ureido)tetrahydro-2H-pyran-2-yl)methyl)-2,7-diazaspiro[3.5]nonan-2-yl)pyrimidin-5-yl)oxy)-N-ethyl-5-fluoro-N-isopropylbenzamide]: the pEC50 was 7.00 to 7.30 and the pKi was over 9.00.
Regarding `CCN(C(=O)c1cc(F)ccc1Oc1cncnc1N1CC2(CCN(C[C@@H]3CC[C@@H](NC(=O)NCC4CC4)CO3)CC2)C1)C(C)C` [Compound 42, 2-((4-(7-(((2S,5R)-5-(3-(cyclopropylmethyl)ureido)tetrahydro-2H-pyran-2-yl)methyl)-2,7-diazaspiro[3.5]nonan-2-yl)pyrimidin-5-yl)oxy)-N-ethyl-5-fluoro-N-isopropylbenzamide], the pEC50 was under 7.00 and the pKi is 8.82 to 9.00.
For the compound `CCS(=O)(=O)N[C@@H]1CC[C@@H](CN2CCC3(CC2)CN(c2ncncc2Oc2ccc(F)cc2C(=O)N(C(C)C)[C@@H]2CCOC2)C3)OC1` [Compound 46, 2-((4-(7-(((2S,5R)-5-(ethylsulfonamido)tetrahydro-2H-pyran-2-yl)methyl)-2,7-diazaspiro[3.5]nonan-2-yl)pyrimidin-5-yl)oxy)-5-fluoro-N-isopropyl-N-((R)-tetrahydrofuran-3-yl)benzamide], the pEC50 was over 7.30 and the pKi is over 9.00.
`CCS(=O)(=O)N[C@@H]1CC[C@@H](CN2CCC3(CC2)CN(c2ncncc2Oc2ccc(F)cc2C(=O)N(C(C)C)C2COC2)C3)OC1` [Compound 48, 2-((4-(7-(((2S,5R)-5-(ethylsulfonamido)tetrahydro-2H-pyran-2-yl)methyl)-2,7-diazaspiro[3.5]nonan-2-yl)pyrimidin-5-yl)oxy)-5-fluoro-N-isopropyl-N-(oxetan-3-yl)benzamide]: the pEC50 is over 7.30 and the pKi is over 9.00.
Take `CCS(=O)(=O)N[C@@H]1CC[C@@H](CN2CCC3(CC2)CN(c2ncncc2Oc2ccc(F)cc2C(=O)N(C(C)C)[C@H]2C[C@@H](O)C2)C3)OC1` [Compound 50, 2-((4-(7-(((2S,5R)-5-(ethylsulfonamido)tetrahydro-2H-pyran-2-yl)methyl)-2,7-diazaspiro[3.5]nonan-2-yl)pyrimidin-5-yl)oxy)-5-fluoro-N-((1s,3s)-3-hydroxycyclobutyl)-N-isopropylbenzamide]: the pEC50 was over 7.30 and the pKi is over 9.00.
For `COCCN(C(=O)c1cc(F)ccc1Oc1cncnc1N1CC2(CCN(C[C@@H]3CC[C@@H](NS(=O)(=O)C4CC4)CO3)CC2)C1)C(C)C` [Compound 51, 2-((4-(7-(((2S,5R)-5-(cyclopropanesulfonamido)tetrahydro-2H-pyran-2-yl)methyl)-2,7-diazaspiro[3.5]nonan-2-yl)pyrimidin-5-yl)oxy)-5-fluoro-N-isopropyl-N-(2-methoxyethyl)benzamide], the pEC50 was over 7.30.
As for `CC(C)N(C)C(=O)c1cc(F)ccc1Oc1cncnc1N1CC2(CCN(C[C@@H]3CC[C@@H](NS(=O)(=O)c4ccn(C)n4)CO3)CC2)C1` [Compound 53, Fluoro-N-isopropyl-N-methyl-2-((4-(7-(((2S,5R)-5-((1-methyl-1H-pyrazole)-3-sulfonamido)tetrahydro-2H-pyran-2-yl)methyl)-2,7-diazaspiro[3.5]nonan-2-yl)pyrimidin-5-yl)oxy)benzamide], the pKi is over 9.00.
On the same count and under the same terms, for `Cc1nc(S(=O)(=O)N[C@@H]2CC[C@@H](CN3CCC4(CC3)CN(c3ncncc3Oc3ccc(F)cc3C(=O)N(C)C(C)C)C4)OC2)cs1` [Compound 54, 5-Fluoro-N-isopropyl-N-methyl-2-((4-(7-(((2S,5R)-5-((2-methylthiazole)-4-sulfonamido)tetrahydro-2H-pyran-2-yl)methyl)-2,7-diazaspiro[3.5]nonan-2-yl)pyrimidin-5-yl)oxy)benzamide] the value was over 9.00.
Regarding `CCN(C(=O)c1cc(F)ccc1Oc1cncnc1N1CC2(CCN(C[C@@H]3CC[C@@H](NS(=O)(=O)c4ccc(C)cc4)CO3)CC2)C1)C(C)C` [Compound 55, N-Ethyl-5-fluoro-N-isopropyl-2-((4-(7-(((2S,5R)-5-((4-methylphenyl)sulfonamido)tetrahydro-2H-pyran-2-yl)methyl)-2,7-diazaspiro[3.5]nonan-2-yl)pyrimidin-5-yl)oxy)benzamide], the pEC50 is over 7.30 and the pKi is over 9.00.
`CCN(C(=O)c1cc(F)ccc1Oc1cncnc1N1CC2(CCN(C[C@@H]3CC[C@@H](NS(=O)(=O)c4ccccc4C)CO3)CC2)C1)C(C)C` [Compound 56, N-Ethyl-5-fluoro-N-isopropyl-2-((4-(7-(((2S,5R)-5-((2-methylphenyl)sulfonamido)tetrahydro-2H-pyran-2-yl)methyl)-2,7-diazaspiro[3.5]nonan-2-yl)pyrimidin-5-yl)oxy)benzamide]: the pEC50 was over 7.30 and the pKi is over 9.00.
For `CCN(C(=O)c1cc(F)ccc1Oc1cncnc1N1CC2(CCN(C[C@@H]3CC[C@@H](NS(=O)(=O)c4cccc(Cl)c4)CO3)CC2)C1)C(C)C` [Compound 57, 2-((4-(7-(((2S,5R)-5-((3-Chlorophenyl)sulfonamido)tetrahydro-2H-pyran-2-yl)methyl)-2,7-diazaspiro[3.5]nonan-2-yl)pyrimidin-5-yl)oxy)-N-ethyl-5-fluoro-N-isopropylbenzamide], the pEC50 is over 7.30 and the pKi is over 9.00.
In the case of `CCN(C(=O)c1cc(F)ccc1Oc1cncnc1N1CC2(CCN(C[C@@H]3CC[C@@H](NS(=O)(=O)c4cccc(C)c4)CO3)CC2)C1)C(C)C` [Compound 60, N-ethyl-5-fluoro-N-isopropyl-2-((4-(7-(((2S,5R)-5-((3-methylphenyl)sulfonamido)tetrahydro-2H-pyran-2-yl)methyl)-2,7-diazaspiro[3.5]nonan-2-yl)pyrimidin-5-yl)oxy)benzamide], the pEC50 was over 7.30 and the pKi was over 9.00.
